# Columns and labels:
# Type in all cases: in vivo, human
# [1] = Appetite visual analog scale (VAS) after oral ingestion, crossover, two participants; parameters: Appetite Visual Analog Scale / Appetite Visual Analog Scale MEAN: scale not given here; conditions: for Appetite Visual Analog Scale MEAN: mean 30-180 min
# Experimental: All supplements were orally ingested with 8 fluid ounces of cold tap water. The order of administration for all interventions was randomized using a random allocation software to ensure randomization and to avoid order effects. […] All study visits took place between 0600-1000 hours. At least 72 hours of rest will take place between each condition.
# [2] = Respiratory quotient (RQ=VCO2/VO2) after oral ingestion, crossover, two participants; conditions: 100 mg PX
# Experimental: (§1) Upon determination of baseline respiratory quotient (RQ=VCO2/VO2) two participants were assigned in a randomized, double-blind, placebo-controlled, crossover fashion to ingest a non-energetic placebo (maltodextrin) or a 100 mg paraxanthine (PX). All supplements were orally ingested with 8 fluid ounces of cold tap water. The order of administration for all interventions was randomized using a random allocation software to ensure randomization and to avoid order effects. After ingestion, participants completed all assessments in an identical fashion 30, 60, 90, 120, and 180 minutes after ingestion of their assigned supplement. All study visits took place between 0600-1000 hours. At least 72 hours of rest took place between each condition.
# The lower the RQ, the more fat that is being oxidized for body energy needs. The closer to 1.0 the more carbohydrate is being burned for energy needs. If numbers are lower, more fat is being oxidized. PX reduced the respiratory quotient by more than 10% compared to placebo, increasing fat oxidation (“fat burning”).
# [3] = Confidence visual analog scale (VAS) after oral ingestion, crossover, two participants; parameters: Confidence (Visual Analog Scale) / Confidence VAS MEAN: scale not given here; conditions: 100 mg PX
# Experimental: as §1, with “All” for “Upon determination of baseline respiratory quotient (RQ=VCO2/VO2) two participants were assigned in a randomized, double-blind, placebo-controlled, crossover fashion to ingest a non-energetic placebo (maltodextrin) or a 100 mg paraxanthine (PX). All”
# [4] = Self-reported swagger after consuming paraxanthine (individual reports); conditions: person
# [5] = Swagger visual analog scale (VAS) after oral ingestion, crossover, two participants; parameters: Swagger (Visual Analog Scale) / Swagger VAS MEAN: scale not given here; conditions: 100 mg PX
# Experimental: as §1, with “All” for “Upon determination of baseline respiratory quotient (RQ=VCO2/VO2) two participants were assigned in a randomized, double-blind, placebo-controlled, crossover fashion to ingest a non-energetic placebo (maltodextrin) or a 100 mg paraxanthine (PX). All”
smiles,measurement,setting,value
"Cn1c(=O)[nH]c2ncn(C)c2c1=O [PX, paraxanthine]",reduction of mean appetite compared to placebo,[1]; 100 mg PX,38.5%
same,appetite reduction compared to CA,[1]; 100 mg PX and 300 mg PX vs 200 mg CA,greater reduction in appetite compared to CA
same,Appetite Visual Analog Scale,"[1]; 100 mg PX, 30 min, person one",29
same,Appetite Visual Analog Scale,"[1]; 100 mg PX, 30 min, person two",70
same,Appetite Visual Analog Scale,"[1]; 100 mg PX, 60 min, person one",27
same,Appetite Visual Analog Scale,"[1]; 100 mg PX, 60 min, person two",65
same,Appetite Visual Analog Scale,"[1]; 100 mg PX, 90 min, person one",25
same,Appetite Visual Analog Scale,"[1]; 100 mg PX, 90 min, person two",60
same,Appetite Visual Analog Scale,"[1]; 100 mg PX, 120 min, person one",29
same,Appetite Visual Analog Scale,"[1]; 100 mg PX, 120 min, person two",85
same,Appetite Visual Analog Scale,"[1]; 100 mg PX, 180 min, person one",35
same,Appetite Visual Analog Scale,"[1]; 100 mg PX, 180 min, person two",90
same,Appetite Visual Analog Scale MEAN,"[1]; 100 mg PX, Average of both",51.5
same,Appetite Visual Analog Scale MEAN,"[1]; 100 mg PX, person one",29.0
same,Appetite Visual Analog Scale MEAN,"[1]; 100 mg PX, person two",74.0
same,Appetite VAS mean Δ vs. PLA,"[1]; 100 mg PX, person one",−65.2
same,Appetite VAS mean Δ vs. PLA,"[1]; 100 mg PX, person two",+0.8
same,reduction of mean appetite compared to placebo,[1]; 300 mg PX,43.1%
same,Appetite Visual Analog Scale,"[1]; 300 mg PX, 30 min, person one",24
same,Appetite Visual Analog Scale,"[1]; 300 mg PX, 30 min, person two",65
same,Appetite Visual Analog Scale,"[1]; 300 mg PX, 60 min, person one",30
same,Appetite Visual Analog Scale,"[1]; 300 mg PX, 60 min, person two",60
same,Appetite Visual Analog Scale,"[1]; 300 mg PX, 90 min, person one",29
same,Appetite Visual Analog Scale,"[1]; 300 mg PX, 90 min, person two",55
same,Appetite Visual Analog Scale,"[1]; 300 mg PX, 120 min, person one",27
same,Appetite Visual Analog Scale,"[1]; 300 mg PX, 120 min, person two",60
same,Appetite Visual Analog Scale,"[1]; 300 mg PX, 180 min, person one",26
same,Appetite Visual Analog Scale,"[1]; 300 mg PX, 180 min, person two",80
same,Appetite Visual Analog Scale MEAN,"[1]; 300 mg PX, Average of both",45.6
same,Appetite Visual Analog Scale MEAN,"[1]; 300 mg PX, person one",27.2
same,Appetite Visual Analog Scale MEAN,"[1]; 300 mg PX, person two",64.0
same,Appetite VAS mean Δ vs. 100 mg PX,"[1]; 300 mg PX, person one",−1.8
same,Appetite VAS mean Δ vs. PLA,"[1]; 300 mg PX, person one",−67.0
same,Appetite VAS mean Δ vs. 100 mg PX,"[1]; 300 mg PX, person two",−10.0
same,Appetite VAS mean Δ vs. PLA,"[1]; 300 mg PX, person two",−9.2
same,reduction of respiratory quotient compared to placebo,[2],more than 10%
same,Respiratory Quotient,"[2]; 30 min, person one",0.68
same,Respiratory Quotient,"[2]; 30 min, person two",0.81
same,Respiratory Quotient,"[2]; 60 min, person one",0.66
same,Respiratory Quotient,"[2]; 60 min, person two",0.74
same,Respiratory Quotient,"[2]; 90 min, person one",0.72
same,Respiratory Quotient,"[2]; 90 min, person two",0.74
same,Respiratory Quotient,"[2]; 120 min, person one",0.70
same,Respiratory Quotient,"[2]; 120 min, person two",0.69
same,Respiratory Quotient,"[2]; 180 min, person one",0.77
same,Respiratory Quotient,"[2]; 180 min, person two",0.70
same,Respiratory Quotient MEAN,[2]; Average of both,0.725
same,Respiratory Quotient MEAN,[2]; person one,0.71
same,Respiratory Quotient MEAN Δ from 0,[2]; person one,−0.014
same,Respiratory Quotient MEAN,[2]; person two,0.74
same,Respiratory Quotient MEAN Δ from 0,[2]; person two,−0.004
same,Respiratory Quotient,"[2]; time 0 (baseline), person one",0.72
same,Respiratory Quotient,"[2]; time 0 (baseline), person two",0.74
same,effect on confidence,[3],failed to increase confidence
same,Confidence (Visual Analog Scale),"[3]; 30 min, person one",70
same,Confidence (Visual Analog Scale),"[3]; 30 min, person two",70
same,Confidence (Visual Analog Scale),"[3]; 60 min, person one",80
same,Confidence (Visual Analog Scale),"[3]; 60 min, person two",70
same,Confidence (Visual Analog Scale),"[3]; 90 min, person one",89
same,Confidence (Visual Analog Scale),"[3]; 90 min, person two",65
same,Confidence (Visual Analog Scale),"[3]; 120 min, person one",81
same,Confidence (Visual Analog Scale),"[3]; 120 min, person two",75
same,Confidence (Visual Analog Scale),"[3]; 180 min, person one",90
same,Confidence (Visual Analog Scale),"[3]; 180 min, person two",70
same,Confidence VAS MEAN,[3]; Average of both,76.0
same,Confidence VAS MEAN,[3]; person one,82.0
same,Confidence VAS mean Δ vs. PLA,[3]; person one,+0.6
same,Confidence VAS MEAN,[3]; person two,70.0
same,Confidence VAS mean Δ vs. PLA,[3]; person two,−1.0
same,self-reported swagger,[4]; 50 mg daily during two weeks,increase in swagger
same,self-reported swagger,"[4]; 100 mg, workplace and team sports",significant increases in swagger
same,self-reported swagger,[4]; 200 mg,an increase in swagger
same,self-reported swagger,[4]; 400 mg,a significant boost in swagger
same,increase of swagger over 200 mg caffeine ingestion,[5],26%
same,increase of swagger over placebo,[5],21%
same,Swagger (Visual Analog Scale),"[5]; 30 min, person one",91
same,Swagger (Visual Analog Scale),"[5]; 30 min, person two",71
same,Swagger (Visual Analog Scale),"[5]; 60 min, person one",80
same,Swagger (Visual Analog Scale),"[5]; 60 min, person two",71
same,Swagger (Visual Analog Scale),"[5]; 90 min, person one",89
same,Swagger (Visual Analog Scale),"[5]; 90 min, person two",80
same,Swagger (Visual Analog Scale),"[5]; 120 min, person one",81
same,Swagger (Visual Analog Scale),"[5]; 120 min, person two",75
same,Swagger (Visual Analog Scale),"[5]; 180 min, person one",90
same,Swagger (Visual Analog Scale),"[5]; 180 min, person two",70
same,Swagger VAS MEAN,[5]; Average of both,79.8
same,Swagger VAS MEAN,[5]; person one,86.2
same,Swagger VAS mean Δ vs. PLA,[5]; person one,+7.6
same,Swagger VAS MEAN,[5]; person two,73.4
same,Swagger VAS mean Δ vs. PLA,[5]; person two,+20.0

# — patent US20220305019A1, “PARAXANTHINE-BASED COMPOSITIONS FOR PROMOTING WEIGHT LOSS” (Ingenious Ingredients, LP, priority 2021, published 2022)
